Experimental data taken from PubChem BioAssay AID1963832 (Molecular Pharmacology Branch, DTP, NCI, 2024).

Tested on: 885724-159-R-J1-PDC complex spheroid viability
Assay: Anticancer human tumor 885724-159-R-J1-PDC patient-derived pancreatic adenocarcinoma cell line growth inhibition [POLQ]
Details: for IC50: curve of first compound; for viability, T/C: stronger effect = lower value
Method in brief: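 Growth inhibition in 3D: complex spheroids (tumor PDC, HUVEC, MSC) treated with POLQ inhibitor combinations; where Cmax unknown, highest tested concentration 10 microM, except SN-38 at 1 microM.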

[1] = second compound 0.0316 µM, first compound 0.0316 µM
[2] = second compound 0.0316 µM, first compound 0.1 µM
[3] = second compound 0.0316 µM, first compound 0.316 µM
[4] = second compound 0.0316 µM, first compound 1 µM
[5] = second compound 0.0316 µM, first compound 3.16 µM
[6] = second compound 0.0316 µM, first compound 10 µM
[7] = second compound 0.1 µM, first compound 0.0316 µM
[8] = second compound 0.1 µM, first compound 0.1 µM
[9] = second compound 0.1 µM, first compound 0.316 µM
[10] = second compound 0.1 µM, first compound 1 µM
[11] = second compound 0.1 µM, first compound 3.16 µM
[12] = second compound 0.1 µM, first compound 10 µM
[13] = second compound 0.316 µM, first compound 0.0316 µM
[14] = second compound 0.316 µM, first compound 0.1 µM
[15] = second compound 0.316 µM, first compound 0.316 µM
[16] = second compound 0.316 µM, first compound 1 µM
[17] = second compound 0.316 µM, first compound 3.16 µM
[18] = second compound 0.316 µM, first compound 10 µM
[19] = second compound 1 µM, first compound 0.0316 µM
[20] = second compound 1 µM, first compound 0.1 µM
[21] = second compound 1 µM, first compound 0.316 µM
[22] = second compound 1 µM, first compound 1 µM
[23] = second compound 1 µM, first compound 3.16 µM
[24] = second compound 1 µM, first compound 10 µM
[25] = second compound 3.16 µM, first compound 0.0316 µM
[26] = second compound 3.16 µM, first compound 0.1 µM
[27] = second compound 3.16 µM, first compound 0.316 µM
[28] = second compound 3.16 µM, first compound 1 µM
[29] = second compound 3.16 µM, first compound 3.16 µM
[30] = second compound 3.16 µM, first compound 10 µM
[31] = second compound 10 µM, first compound 0.0316 µM
[32] = second compound 10 µM, first compound 0.1 µM
[33] = second compound 10 µM, first compound 0.316 µM
[34] = second compound 10 µM, first compound 1 µM
[35] = second compound 10 µM, first compound 3.16 µM
[36] = second compound 10 µM, first compound 10 µM
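Further: spheroids exposed to compounds for 7 days.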

Question: `CC(C)n1c(=O)n(C)c2cnc3cc(F)c(-c4ccc(OCCCN5CCCCC5)nc4)cc3c21` + Nc1ccc(C#CCN(C(=O)Cc2ncc(C(F)(F)F)cc2C(F)(F)F)c2ccc(F)cc2)nn1 was tested. Which IC50 (second compound 0.0316 µM) did it give?
Answer: > 10 µM

Question: And the IC50 (second compound 0.1 µM)?
Answer: > 10 µM

Question: And the IC50 (second compound 0.316 µM)?
Answer: > 10 µM

Question: And the IC50 (second compound 1 µM)?
Answer: > 10 µM

Question: And the IC50 (second compound 3.16 µM)?
Answer: > 10 µM

Question: And the IC50 (second compound 10 µM)?
Answer: > 10 µM

Question: And the viability, T/C [1]?
Answer: 103%

Question: And the viability, T/C [2]?
Answer: 103%

Question: What about the viability, T/C [3] of the same compound?
Answer: 101%

Question: And the viability, T/C [4]?
Answer: 98.2%

Question: And the viability, T/C [5]?
Answer: 85.3%

Question: What about the viability, T/C [6] of the same compound?
Answer: 81.5%

Question: And the viability, T/C [7]?
Answer: 104%

Question: What about the viability, T/C [8] of the same compound?
Answer: 94.9%

Question: What about the viability, T/C [9] of the same compound?
Answer: 98%

Question: What about the viability, T/C [10] of the same compound?
Answer: 98.9%

Question: And the viability, T/C [11]?
Answer: 98.9%

Question: And the viability, T/C [12]?
Answer: 93.7%

Question: What about the viability, T/C [13] of the same compound?
Answer: 104%

Question: And the viability, T/C [14]?
Answer: 102%

Question: And the viability, T/C [15]?
Answer: 96.3%

Question: What about the viability, T/C [16] of the same compound?
Answer: 94.5%

Question: And the viability, T/C [17]?
Answer: 94%

Question: And the viability, T/C [18]?
Answer: 87.7%

Question: What about the viability, T/C [19] of the same compound?
Answer: 111%

Question: And the viability, T/C [20]?
Answer: 104%

Question: What about the viability, T/C [21] of the same compound?
Answer: 96.8%

Question: What about the viability, T/C [22] of the same compound?
Answer: 97.8%

Question: And the viability, T/C [23]?
Answer: 97%

Question: What about the viability, T/C [24] of the same compound?
Answer: 84.9%

Question: What about the viability, T/C [25] of the same compound?
Answer: 98.4%

Question: And the viability, T/C [26]?
Answer: 104%

Question: And the viability, T/C [27]?
Answer: 98.1%

Question: What about the viability, T/C [28] of the same compound?
Answer: 101%

Question: What about the viability, T/C [29] of the same compound?
Answer: 90%

Question: What about the viability, T/C [30] of the same compound?
Answer: 92.1%

Question: And the viability, T/C [31]?
Answer: 106%

Question: What about the viability, T/C [32] of the same compound?
Answer: 97.4%

Question: And the viability, T/C [33]?
Answer: 108%

Question: And the viability, T/C [34]?
Answer: 103%

Question: What about the viability, T/C [35] of the same compound?
Answer: 90.7%

Question: And the viability, T/C [36]?
Answer: 73.7%

Question: `CC1COCCN1c1cc(-c2ccnn2C)c2ccnc(-c3ccn[nH]3)c2n1` (stereo unspecified) + Nc1ccc(C#CCN(C(=O)Cc2ncc(C(F)(F)F)cc2C(F)(F)F)c2ccc(F)cc2)nn1 was tested. Which IC50 (second compound 0.0316 µM) did it give?
Answer: 0.298 µM

Question: And the IC50 (second compound 0.1 µM)?
Answer: 0.275 µM

Question: And the IC50 (second compound 0.316 µM)?
Answer: 0.267 µM

Question: And the IC50 (second compound 1 µM)?
Answer: 0.178 µM

Question: What about the IC50 (second compound 3.16 µM) of the same compound?
Answer: 0.275 µM

Question: What about the IC50 (second compound 10 µM) of the same compound?
Answer: 0.458 µM

Question: And the viability, T/C [1]?
Answer: 95.7%

Question: And the viability, T/C [2]?
Answer: 60.6%

Question: What about the viability, T/C [3] of the same compound?
Answer: 51%

Question: What about the viability, T/C [4] of the same compound?
Answer: 43.9%

Question: What about the viability, T/C [5] of the same compound?
Answer: 47.7%

Question: What about the viability, T/C [6] of the same compound?
Answer: 44.4%

Question: And the viability, T/C [7]?
Answer: 108%

Question: And the viability, T/C [8]?
Answer: 60.8%

Question: What about the viability, T/C [9] of the same compound?
Answer: 49.6%

Question: What about the viability, T/C [10] of the same compound?
Answer: 48.1%

Question: And the viability, T/C [11]?
Answer: 42.7%

Question: What about the viability, T/C [12] of the same compound?
Answer: 39.5%

Question: What about the viability, T/C [13] of the same compound?
Answer: 96.1%

Question: What about the viability, T/C [14] of the same compound?
Answer: 58.4%

Question: And the viability, T/C [15]?
Answer: 49.7%

Question: And the viability, T/C [16]?
Answer: 47.5%

Question: And the viability, T/C [17]?
Answer: 46.4%

Question: What about the viability, T/C [18] of the same compound?
Answer: 39.1%

Question: What about the viability, T/C [19] of the same compound?
Answer: 90%

Question: And the viability, T/C [20]?
Answer: 52.3%

Question: What about the viability, T/C [21] of the same compound?
Answer: 49%

Question: What about the viability, T/C [22] of the same compound?
Answer: 47.5%

Question: And the viability, T/C [23]?
Answer: 49.9%

Question: What about the viability, T/C [24] of the same compound?
Answer: 38.4%

Question: And the viability, T/C [25]?
Answer: 95.9%

Question: And the viability, T/C [26]?
Answer: 61.5%

Question: What about the viability, T/C [27] of the same compound?
Answer: 48.4%

Question: And the viability, T/C [28]?
Answer: 45.2%

Question: What about the viability, T/C [29] of the same compound?
Answer: 43.4%

Question: And the viability, T/C [30]?
Answer: 43.8%

Question: What about the viability, T/C [31] of the same compound?
Answer: 106%

Question: What about the viability, T/C [32] of the same compound?
Answer: 64%

Question: And the viability, T/C [33]?
Answer: 52.4%

Question: What about the viability, T/C [34] of the same compound?
Answer: 49.3%

Question: And the viability, T/C [35]?
Answer: 46.6%

Question: What about the viability, T/C [36] of the same compound?
Answer: 42.5%

Question: Which IC50 (second compound 0.0316 µM) does the source give for `CCCS(=O)(=O)Nc1ccc(F)c(C(=O)c2c[nH]c3ncc(-c4ccc(Cl)cc4)cc23)c1F` + Nc1ccc(C#CCN(C(=O)Cc2ncc(C(F)(F)F)cc2C(F)(F)F)c2ccc(F)cc2)nn1 here?
Answer: > 10 µM

Question: And the IC50 (second compound 0.1 µM)?
Answer: > 10 µM

Question: And the IC50 (second compound 0.316 µM)?
Answer: > 10 µM

Question: What about the IC50 (second compound 1 µM) of the same compound?
Answer: > 10 µM

Question: What about the IC50 (second compound 3.16 µM) of the same compound?
Answer: > 10 µM

Question: What about the IC50 (second compound 10 µM) of the same compound?
Answer: > 10 µM

Question: And the viability, T/C [1]?
Answer: 93.2%

Question: And the viability, T/C [2]?
Answer: 95.2%

Question: And the viability, T/C [3]?
Answer: 115%

Question: And the viability, T/C [4]?
Answer: 128%

Question: What about the viability, T/C [5] of the same compound?
Answer: 147%

Question: And the viability, T/C [6]?
Answer: 97.6%

Question: And the viability, T/C [7]?
Answer: 105%

Question: And the viability, T/C [8]?
Answer: 107%

Question: What about the viability, T/C [9] of the same compound?
Answer: 109%

Question: What about the viability, T/C [10] of the same compound?
Answer: 137%

Question: And the viability, T/C [11]?
Answer: 153%

Question: And the viability, T/C [12]?
Answer: 97.5%

Question: And the viability, T/C [13]?
Answer: 99.4%

Question: What about the viability, T/C [14] of the same compound?
Answer: 110%

Question: What about the viability, T/C [15] of the same compound?
Answer: 118%

Question: And the viability, T/C [16]?
Answer: 134%

Question: And the viability, T/C [17]?
Answer: 147%

Question: What about the viability, T/C [18] of the same compound?
Answer: 94.1%

Question: What about the viability, T/C [19] of the same compound?
Answer: 95.6%

Question: And the viability, T/C [20]?
Answer: 101%

Question: What about the viability, T/C [21] of the same compound?
Answer: 116%

Question: And the viability, T/C [22]?
Answer: 132%

Question: What about the viability, T/C [23] of the same compound?
Answer: 148%

Question: What about the viability, T/C [24] of the same compound?
Answer: 95%

Question: What about the viability, T/C [25] of the same compound?
Answer: 90.8%

Question: What about the viability, T/C [26] of the same compound?
Answer: 103%

Question: And the viability, T/C [27]?
Answer: 109%

Question: What about the viability, T/C [28] of the same compound?
Answer: 144%

Question: What about the viability, T/C [29] of the same compound?
Answer: 146%

Question: What about the viability, T/C [30] of the same compound?
Answer: 85%

Question: And the viability, T/C [31]?
Answer: 96.8%

Question: And the viability, T/C [32]?
Answer: 109%

Question: And the viability, T/C [33]?
Answer: 133%

Question: What about the viability, T/C [34] of the same compound?
Answer: 137%

Question: What about the viability, T/C [35] of the same compound?
Answer: 135%

Question: And the viability, T/C [36]?
Answer: 94.5%
